Laboratory results published in US9969742B2, “Imidazotriazinone compounds” (Ironwood Pharmaceuticals, Inc., priority 2012, dated 2018).
Read-outs that look alike come from different tables or passages of the source.

What was measured:
Format in all cases: biochemical
[1] = target: T1, PDE1B (Homo sapiens, UniProt Q01064); experiment: Phosphodiesterase enzyme screening assay, PDE1B
T1 construct: purchased Reaction Biology Corporation, Malvern, Pa
Method in brief: (§1)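 Reaction started by adding substrate (4.0 μM cGMP) to recombinant human enzyme in HEPES pH 7.5 buffer with MgCl2, DTT and Brij; 1 h at room temperature; quenched with EDTA-containing stop buffer; product and substrate resolved electrophoretically and quantified by fluorescence relative to uninhibited controls.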

[2] = target: T2, PDE9A2 (Homo sapiens, UniProt O76083); experiment: Phosphodiesterase enzyme screening assay, PDE9A2
T2 construct: purchased Reaction Biology Corporation, Malvern, Pa
Method in brief: as §1

[3] = target: T3, PDE1A (Homo sapiens, UniProt P54750); experiment: Phosphodiesterase enzyme screening assay, PDE1A
T3 construct: purchased Reaction Biology Corporation, Malvern, Pa
Method in brief: as §1

[4] = ratio of IC50 values PDE1B / PDE9A2, value greater than 1 = greater selectivity for PDE9A2
[5] = 4.0 μM cGMP substrate, 1 hour at R.T., read-out: Band (PDE9A2 IC50)
[6] = ratio of IC50 values PDE1A / PDE9A2, value greater than 1 = greater selectivity for PDE9A2
[7] = ratio of IC50 values PDE1B / PDE9A2, value greater than 1 indicates greater selectivity for PDE9A2
[8] = ratio of IC50 values PDE1A / PDE9A2, value greater than 1 indicates greater selectivity for PDE9A2
[9] = Table 2, ratio of IC50 values, value greater than 1 indicates greater selectivity for PDE9A2
[10] = Table 2, 10 concentrations, 4.0 μM cGMP substrate, 1 hour at R.T., read-out: Band (PDE9A2 IC50)
[11] = ratio of IC50 values, PDE1B versus PDE9A2, value greater than 1 indicates greater selectivity for PDE9A2
[12] = ratio of IC50 values, PDE1A versus PDE9A2, value greater than 1 indicates greater selectivity for PDE9A2
[13] = Table 1, ratio of IC50 values, value greater than 1 indicates greater selectivity for PDE9A2
[14] = Table 1, 10 concentrations, 4.0 μM cGMP substrate, 1 hour at R.T., read-out: Band (PDE9A2 IC50)
[15] = ratio of IC50 values, value greater than 1 indicates greater selectivity for PDE9A2

T3 sequence (P54750 whole entry): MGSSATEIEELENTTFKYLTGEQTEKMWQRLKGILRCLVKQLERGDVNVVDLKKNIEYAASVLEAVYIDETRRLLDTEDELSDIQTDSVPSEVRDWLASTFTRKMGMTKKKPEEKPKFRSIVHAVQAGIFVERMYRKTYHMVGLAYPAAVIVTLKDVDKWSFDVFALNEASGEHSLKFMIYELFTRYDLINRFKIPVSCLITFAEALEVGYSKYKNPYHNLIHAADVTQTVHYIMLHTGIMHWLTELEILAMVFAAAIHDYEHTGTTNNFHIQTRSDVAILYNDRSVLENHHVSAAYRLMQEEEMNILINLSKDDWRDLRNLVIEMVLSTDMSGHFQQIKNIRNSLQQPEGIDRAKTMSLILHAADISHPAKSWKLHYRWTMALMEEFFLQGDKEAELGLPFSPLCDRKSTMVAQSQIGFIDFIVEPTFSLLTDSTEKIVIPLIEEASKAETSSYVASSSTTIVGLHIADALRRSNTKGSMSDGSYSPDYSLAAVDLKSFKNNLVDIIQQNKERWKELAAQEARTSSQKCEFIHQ
T2 sequence (O76083 1-533 isoform O76083-2): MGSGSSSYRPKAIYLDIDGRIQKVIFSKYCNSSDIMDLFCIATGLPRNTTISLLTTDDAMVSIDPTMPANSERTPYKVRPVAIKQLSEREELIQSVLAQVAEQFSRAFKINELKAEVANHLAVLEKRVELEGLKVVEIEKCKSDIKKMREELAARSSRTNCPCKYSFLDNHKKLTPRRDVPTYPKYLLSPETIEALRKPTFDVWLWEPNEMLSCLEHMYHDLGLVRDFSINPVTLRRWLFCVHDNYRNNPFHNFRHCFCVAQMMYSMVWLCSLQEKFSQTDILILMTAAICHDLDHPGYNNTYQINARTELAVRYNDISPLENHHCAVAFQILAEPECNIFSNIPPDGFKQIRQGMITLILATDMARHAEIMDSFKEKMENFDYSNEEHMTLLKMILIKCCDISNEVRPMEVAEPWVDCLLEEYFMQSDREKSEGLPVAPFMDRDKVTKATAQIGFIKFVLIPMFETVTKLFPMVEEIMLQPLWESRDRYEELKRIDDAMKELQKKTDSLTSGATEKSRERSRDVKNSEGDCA
T1 sequence (Q01064 whole entry): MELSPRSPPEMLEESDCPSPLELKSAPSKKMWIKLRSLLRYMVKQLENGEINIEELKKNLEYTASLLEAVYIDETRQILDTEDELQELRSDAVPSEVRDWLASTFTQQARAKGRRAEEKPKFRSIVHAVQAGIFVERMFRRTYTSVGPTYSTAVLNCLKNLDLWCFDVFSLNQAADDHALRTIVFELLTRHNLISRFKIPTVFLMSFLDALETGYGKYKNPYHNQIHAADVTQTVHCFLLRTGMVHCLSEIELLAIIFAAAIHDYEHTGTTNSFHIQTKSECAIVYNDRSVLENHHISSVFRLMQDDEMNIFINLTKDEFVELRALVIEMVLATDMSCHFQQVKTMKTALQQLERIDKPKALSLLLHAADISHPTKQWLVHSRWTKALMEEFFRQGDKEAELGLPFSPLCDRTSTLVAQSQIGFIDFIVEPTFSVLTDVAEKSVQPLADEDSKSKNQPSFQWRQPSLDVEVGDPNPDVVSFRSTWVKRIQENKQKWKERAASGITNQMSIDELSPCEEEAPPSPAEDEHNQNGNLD

## CC1CN(Cc2ccccc2OC(F)(F)F)CC1c1nn2c(C3CCOCC3)ncc2c(=O)[nH]1 (single isomer, unassigned; (+)) [(+)-2-((3,4-trans)-4-methyl-1-(2-(trifluoromethoxy)benzyl)pyrrolidin-3-yl)-7-(tetrahydro-2H-pyran-4-yl)imidazo[5,1-f][1,2,4]triazin-4(3H)-one]
[1]; [4]
  PDE1B selectivity (versus PDE9A2): 24
[2]; [5]
  IC50: < 1000 nM
[3]; [6]
  PDE1A selectivity (versus PDE9A2): 173

## CC1CN(Cc2ccc(F)cc2)CC1c1nn2c(-c3ccccc3F)ncc2c(=O)[nH]1 (single isomer, unassigned; (+)) [(+)-2-((3,4-trans)-1-(4-fluorobenzyl)-4-methylpyrrolidin-3-yl)-7-(2-fluorophenyl)imidazo[5,1-f][1,2,4]triazin-4(3H)-one]
[1]; [7]
  PDE1B selectivity (versus PDE9A2): 165
[2]; [5]
  IC50: < 1000 nM
[3]; [8]
  PDE1A selectivity (versus PDE9A2): 62

## CCC(CC)c1ncc2c(=O)[nH]c(C3CN(Cc4cn5ccccc5n4)CC3C)nn12 (single isomer, unassigned; (+)) [(+)-2-((3,4-trans)-1-(imidazo[1,2-a]pyridin-2-ylmethyl)-4-methylpyrrolidin-3-yl)-7-(pentan-3-yl)imidazo[5,1-f][1,2,4]triazin-4(3H)-one]
[1]; [7]
  PDE1B selectivity (versus PDE9A2): 48
[2]; [5]
  IC50: < 1000 nM
[3]; [8]
  PDE1A selectivity (versus PDE9A2): 51

## CC1CN(CCc2cncnc2)CC1c1nn2c(C3CCOCC3)ncc2c(=O)[nH]1 (single isomer, unassigned; (+)) [(+)-2-((3,4-trans)-4-methyl-1-(2-(pyrimidin-5-yl)ethyl)pyrrolidin-3-yl)-7-(tetrahydro-2H-pyran-4-yl)imidazo[5,1-f][1,2,4]triazin-4(3H)-one]
[1]; [9]
  PDE1B selectivity (versus PDE9A2): 89
[2]; [10]
  IC50: < 1000 nM
[3]; [9]
  PDE1A selectivity (versus PDE9A2): 71

## Cc1cc(F)c(F)cc1-c1ncc2c(=O)[nH]c(C3CN(Cc4cn5ccccc5n4)CC3C)nn12 (single isomer, unassigned; (+)) [(+)-7-(4,5-difluoro-2-methylphenyl)-2-((3,4-trans)-1-(imidazo[1,2-a]pyridin-2-ylmethyl)-4-methylpyrrolidin-3-yl)imidazo[5,1-f][1,2,4]triazin-4(3H)-one]
[1]; [11]
  PDE1B selectivity (versus PDE9A2): 9350
[2]; read-out: Band (PDE9A2 IC50)
  IC50: < 1000 nM
[3]; [12]
  PDE1A selectivity (versus PDE9A2): 2510

## CC1CN(Cc2ccc3ccncc3c2)CC1c1nn2c(C3CCOCC3)ncc2c(=O)[nH]1 (single isomer, unassigned; (+)) [(+)-2-((3,4-trans)-1-(isoquinolin-7-ylmethyl)-4-methylpyrrolidin-3-yl)-7-(tetrahydro-2H-pyran-4-yl) imidazo [5,1-f] [1,2,4] triazin-4(3H)-one]
[1]; [13]
  PDE1B selectivity (versus PDE9A2): 893
[2]; [14]
  IC50: < 1000 nM
[3]; [13]
  PDE1A selectivity (versus PDE9A2): 223

## CC1CN(C(=O)c2ncc3ccccc3n2)CC1c1nn2c(C3CCOCC3)ncc2c(=O)[nH]1 (single isomer, unassigned; (-)) [(−)-2-((3,4-trans)-4-methyl-1-(quinazoline-2-carbonyl)pyrrolidin-3-yl)-7-(tetrahydro-2H-pyran-4-yl)imidazo[5,1-f][1,2,4]triazin-4(3H)-one]
[1]; [13]
  PDE1B selectivity (versus PDE9A2): 50
[2]; [14]
  IC50: < 1000 nM
[3]; [13]
  PDE1A selectivity (versus PDE9A2): 32

## CC1CN(Cc2ccc(Cl)c(Cl)c2)CC1c1nn2c(C3CCOCC3)ncc2c(=O)[nH]1 (single isomer, unassigned; (+)) [(+)-2-((3,4-trans)-1-(3,4-dichlorobenzyl)-4-methylpyrrolidin-3-yl)-7-(tetrahydro-2H-pyran-4-yl)imidazo[1,5-f][1,2,4]triazin-4(3H)-one]
[1]; [13]
  PDE1B selectivity (versus PDE9A2): 2627
[2]; [14]
  IC50: < 1000 nM
[3]; [13]
  PDE1A selectivity (versus PDE9A2): 1297

## CC1CN(Cc2ccnc3ccccc23)CC1c1nn2c(C3CCOCC3)ncc2c(=O)[nH]1 (single isomer, unassigned; (+)) [(+)-2-((3,4-trans)-4-methyl-1-(quinolin-4-ylmethyl)pyrrolidin-3-yl)-7-(tetrahydro-2H-pyran-4-yl)imidazo[5,1-f][1,2,4]triazin-4(3H)-one]
[1]; [13]
  PDE1B selectivity (versus PDE9A2): 987
[2]; [14]
  IC50: < 1000 nM
[3]; [13]
  PDE1A selectivity (versus PDE9A2): 471

## CC1CN(Cc2ccc(-c3ccccc3)cc2)CC1c1nn2c(C3CCOCC3)ncc2c(=O)[nH]1 (single isomer, unassigned; (-)) [(−)-2-((3,4-trans)-1-([1,1′-biphenyl]-4-ylmethyl)-4-methylpyrrolidin-3-yl)-7-(tetrahydro-2H-pyran-4-yl)imidazo[5,1-f][1,2,4]triazin-4(3H)-one]
[1]; [15]
  PDE1B selectivity (versus PDE9A2): 2060
[2]; read-out: Band (PDE9A2 IC50)
  IC50: < 1000 nM
[3]; [15]
  PDE1A selectivity (versus PDE9A2): 2875

## Cc1cnccc1-c1ncc2c(=O)[nH]c(C3CN(Cc4ccccc4)CC3C)nn12 (single isomer, unassigned; (+)) [(+)-2-((3,4-trans)-1-benzyl-4-methylpyrrolidin-3-yl)-7-(3-methylpyridin-4-yl) imidazo [5,1-f] [1,2,4] triazin-4 (3H)-one]
[1]; [7]
  PDE1B selectivity (versus PDE9A2): 144
[2]; [5]
  IC50: < 1000 nM
[3]; [8]
  PDE1A selectivity (versus PDE9A2): 167

## Cc1cc(CN2CC(C)C(c3nn4c(C5CCOCC5)ncc4c(=O)[nH]3)C2)ccn1 (single isomer, unassigned; (+)) [(+)-2-((3,4-trans)-4-methyl-1-((2-methylpyridin-4-yl)methyl)pyrrolidin-3-yl)-7-(tetrahydro-2H-pyran-4-yl)imidazo[5,1-f][1,2,4]triazin-4(3H)-one]
[1]; [4]
  PDE1B selectivity (versus PDE9A2): 421
[2]; [5]
  IC50: < 1000 nM
[3]; [6]
  PDE1A selectivity (versus PDE9A2): 232

## CC1CN(Cc2ccc3nccn3n2)CC1c1nn2c(C3CCOCC3)ncc2c(=O)[nH]1 (single isomer, unassigned; (+)) [(+)-2-((3,4-trans)-1-(imidazo[1,2-b]pyridazin-6-ylmethyl)-4-methylpyrrolidin-3-yl)-7-(tetrahydro-2H-pyran-4-yl)imidazo[5,1-f][1,2,4]triazin-4(3H)-one]
[1]; [13]
  PDE1B selectivity (versus PDE9A2): 633
[2]; [14]
  IC50: < 1000 nM
[3]; [13]
  PDE1A selectivity (versus PDE9A2): 232

## Cc1cc(F)c(F)cc1-c1ncc2c(=O)[nH]c(C3CN(Cc4ccccc4)CC3C)nn12 (single isomer, unassigned; (+)) [(+)-2-((3,4-trans)-1-benzyl-4-methylpyrrolidin-3-yl)-7-(4,5-difluoro-2-methylphenyl)imidazo[5,1-f][1,2,4]triazin-4(3H)-one]
[1]; [11]
  PDE1B selectivity (versus PDE9A2): 143
[2]; read-out: Band (PDE9A2 IC50)
  IC50: < 1000 nM
[3]; [12]
  PDE1A selectivity (versus PDE9A2): 174

## CC1CN(Cc2ccc(Cl)cc2)CC1c1nn2c(C3CCC(F)(F)CC3)ncc2c(=O)[nH]1 (single isomer, unassigned; (+)) [(+)-2-((3,4-trans)-1-(4-chlorobenzyl)-4-methylpyrrolidin-3-yl)-7-(4,4-difluorocyclohexyl)imidazo[5,1-f][1,2,4]triazin-4(3H)-one]
[1]; [13]
  PDE1B selectivity (versus PDE9A2): 1210
[2]; [14]
  IC50: < 1000 nM
[3]; [13]
  PDE1A selectivity (versus PDE9A2): 595

## CC1CN(Cc2nccc(C(F)(F)F)n2)CC1c1nn2c(C3CCOCC3)ncc2c(=O)[nH]1 (single isomer, unassigned; (+)) [(+)-2-((3,4-trans)-4-methyl-1-((4-(trifluoromethyl)pyrimidin-2-yl)methyl)pyrrolidin-3-yl)-7-(tetrahydro-2H-pyran-4-yl)imidazo[5,1-f][1,2,4]triazin-4(3H)-one]
[1]; [9]
  PDE1B selectivity (versus PDE9A2): 566
[2]; [10]
  IC50: < 1000 nM
[3]; [9]
  PDE1A selectivity (versus PDE9A2): 585

## Cc1cccc(CN2CC(C)C(c3nn4c(C5CCOCC5)ncc4c(=O)[nH]3)C2)c1 (single isomer, unassigned; (+)) [(+)-2-((3,4-trans)-4-methyl-1-(3-methylbenzyl)pyrrolidin-3-yl)-7-(tetrahydro-2H-pyran-4-yl)imidazo[5,1-f][1,2,4]triazin-4(3H)-one]
[1]; [13]
  PDE1B selectivity (versus PDE9A2): 402
[2]; [14]
  IC50: < 1000 nM
[3]; [13]
  PDE1A selectivity (versus PDE9A2): 442

## CC1CN(Cc2ccc3ccccc3n2)CC1c1nn2c(C3CCOCC3)ncc2c(=O)[nH]1 (single isomer, unassigned; (-)) [(−)-2-((3,4-trans)-4-methyl-1-(quinolin-2-ylmethyl)pyrrolidi] [(−)-2-((3,4-trans)-4-methyl-1-(quinolin-2-ylmethyl)pyrrolidin-3-yl)-7-(tetrahydro-2H-pyran-4-yl)imidazo[5,1-f][1,2,4]triazin-4(3H)-one]
[1]; [13]
  PDE1B selectivity (versus PDE9A2): 48
[2]; [14]
  IC50: < 1000 nM
[3]; [13]
  PDE1A selectivity (versus PDE9A2): 56

## Cc1cc(F)ccc1-c1ncc2c(=O)[nH]c(C3CN(Cc4ccc(Cl)cc4)CC3C)nn12 (single isomer, unassigned; (+)) [(+)-2-((3,4-trans)-1-(4-chlorobenzyl)-4-methylpyrrolidin-3-yl)-7-(4-fluoro-2-methylphenyl)imidazo[5,1-f][1,2,4]triazin-4(3H)-one]
[1]; ratio of IC50 values PDE1B vs PDE9A2, value greater than 1 indicates greater selectivity for PDE9A2
  PDE1B selectivity (versus PDE9A2): 1106
[2]; IC50 band, 4.0 μM cGMP substrate, 1 hour at R.T.
  IC50: < 1000 nM
[3]; ratio of IC50 values PDE1A vs PDE9A2, value greater than 1 indicates greater selectivity for PDE9A2
  PDE1A selectivity (versus PDE9A2): 468
